Data as given in PMC13266999, “Designing Antibiotics with Inherent Resistance to Efflux as a Strategy to Revive Discovery against Multidrug-Resistant Pathogens” (Journal of Medicinal Chemistry, 2026).
≈ marks a conversion by molar mass, not a printed value. Where “and” joins values, the source holds several entries; their conditions need not be identical. Identical values can stand only once. Like-named read-outs stand apart in the source and are kept apart here.

What was measured:
[1] = tested on: A. baumannii; experiment: A. baumannii efflux chequerboard assay; type: cell-based, Acinetobacter baumannii; details: for MIC: Acinetobacter baumannii
Description: Checkerboard assays were performed by preparing two separate 2-fold dilution series of compounds in two 96 well plates, one horizontally, one vertically. […] Plates were incubated at 37 C for 20 h and the absorbance (OD600) was read on a CLARIOstar spectrophotometer (BMG Labtech). The fractional inhibitory concentration was calculated as follows: ΣFIC = [(MIC of A in combination)/(MIC of A alone)] + [(MIC of B in combination)/(MIC of B alone)].

[2] = tested on: S. aureus; experiment: MIC (microbroth dilution); type: cell-based, Staphylococcus aureus; details: for MIC: Staphylococcus aureus; for fold difference in MIC, SA-1199B vs SA-1199: NorA-overexpressing vs WT
Description: (§1) All bacteria were maintained on tryptic soy agar (TSA), except Streptococcus spp., which were maintained on Columbia agar plates containing 5% horse blood. […] Bacteria were grown to stationary phase in liquid culture overnight, with shaking at 200 rpm, before being back diluted to the relevant starting concentration for each assay below. MICs were measured by the microbroth dilution method. […] Absorbance at OD600 was read on a CLARIOstar spectrophotometer (BMG Labtech) and the MIC was defined as the minimum concentration of compound where no visible growth was detected. […] MICs were also performed in the presence of the outer membrane permeator, polymyxin b nonapeptide (PMBN) following the same MIC method but with the following variation. The 2-fold dilution series of compound was prepared as above, then 50 μL of PMBN at a final concentration of 30 μg/mL was added to relevant wells, while 50 μL/well of blank media was added to the remaining wells. Bacteria were then added at 50 μL/well for a starting concentration as above. […] The MICs were read and defined as above. All animal procedures were performed by the contract research organization Pharmacology Discovery Services Taiwan in accordance with the Guide for the Care and Use of Laboratory Animals. The procedures were approved by the Institutional Ethics Committee of Pharmacology Discovery Services Taiwan, Ltd. (approval no. AB127662), in compliance with animal welfare legislation in Taiwan.

[3] = tested on: E. faecalis; experiment: MIC (microbroth dilution); type: cell-based, Enterococcus faecalis; details: Enterococcus faecalis, read-out: MIC
Description: as §1

[4] = tested on: NorA overexpressing strain NCTC 13616; experiment: Reserpine growth (efflux inhibition) assay; details: for AUC of growth curve: biological replicates 1-3
Description: Statistical analyses were performed with GraphPad Prism V9.5.0. […] Unpaired t tests were used when comparing two samples in the gyrase assays.

[5] = ATCC17978, A. baumannii ATCC 17978, read-out: MIC alone
[6] = A. baumannii AYE, read-out: MIC alone
[7] = ATCC9144, ATCC 9144, read-out: MIC
[8] = NCTC13277, NCTC 13277, read-out: MIC
[9] = NCTC13616, NCTC 13616, read-out: MIC

Compound	MIC +50 (0.25x MIC) ([1]; A. baumannii ATCC 17978)	MIC +50 (0.5x MIC) ([1]; A. baumannii ATCC 17978)	MIC +50 (0.25x MIC) ([1]; A. baumannii AYE)	MIC +50 (0.5x MIC) ([1]; A. baumannii AYE)	MIC [2, 7]	MIC [2, 8]	MIC [2, 9]	MIC ([2]; SA-1199, read-out: MIC)	MIC ([2]; SA-1199B (NorA-overexpressing))	other results
CC(C)(O/N=C(\C(=O)N[C@@H]1C(=O)N2C(C(=O)[O-])=C(C[n+]3ccccc3)CS[C@H]12)c1csc(N)n1)C(=O)O [Ceftazidime]	0.94 to 3.76 µg/mL	0.003 to 0.438 µg/mL	>1,024 μg/mL	3.76 to 224 µg/mL						MIC [1, 5]: 4 to 16 µg/mL; MIC [1, 6]: > 1020 µg/mL
O=C(N[C@H](CO)[C@H](O)c1ccc([N+](=O)[O-])cc1)C(Cl)Cl [Chloramphenicol]	60 µg/mL	56 µg/mL	120 µg/mL	224 µg/mL						MIC ([1]; ATCC17978, read-out: MIC alone): 64 µg/mL; MIC ([1]; read-out: MIC alone): 128 µg/mL
O=C(O)c1cn(C2CC2)c2cc(N3CCN[C@@H](Cc4cccc5ccccc45)C3)c(F)cc2c1=O [Compound 12, (S)-1-Cyclopropyl-6-fluoro-7-(3-(naphthalen-1-ylmethyl)piperazin-1-yl)-4-oxo-1,4-dihydroquinoline-3-carboxylic acid]					4 µg/mL (≈ 8.48 µM)	8 µg/mL (≈ 17 µM)	8 µg/mL (≈ 17 µM)	2 µg/mL (≈ 4.24 µM)	4 µg/mL (≈ 8.48 µM)	MIC ([2]; USA300, USA300, read-out: MIC): 8 to 16 µg/mL (≈ 17 to 33.9 µM); MIC ([3]; NCTC775, NCTC 775): 8 µg/mL (≈ 17 µM); MIC ([3]; NCTC12201, NCTC 12201): 8 µg/mL (≈ 17 µM); MIC ([3]; NCTC12204, NCTC 12204): 8 µg/mL (≈ 17 µM)
O=C(O)c1cn(C2CC2)c2c(Cc3cccc4ccccc34)c(N3CCNCC3)c(F)cc2c1=O [Compound 19, 1-Cyclopropyl-6-fluoro-8-(naphthalen-1-ylmethyl)-4-oxo-7-(piperazin-1-yl)-1,4-dihydroquinoline-3-carboxylic acid]					64 µg/mL (≈ 136 µM)	32 µg/mL (≈ 67.9 µM)	32 µg/mL (≈ 67.9 µM)	16 µg/mL (≈ 33.9 µM)	16 µg/mL (≈ 33.9 µM)	MIC ([2]; USA300, USA300, read-out: MIC): 32 µg/mL (≈ 67.9 µM); MIC ([3]; NCTC775, NCTC 775): 16 µg/mL (≈ 33.9 µM); MIC ([3]; NCTC12201, NCTC 12201): 16 µg/mL (≈ 33.9 µM); MIC ([3]; NCTC12204, NCTC 12204): 16 µg/mL (≈ 33.9 µM)
C[C@H]1COc2c(N3CCN(c4ncccn4)CC3)c(F)cc3c(=O)c(C(=O)O)cn1c23 [Compound 42, (S)-9-Fluoro-3-methyl-7-oxo-10-(4-(pyrimidin-2-yl)piperazin-1-yl)-2,3-dihydro-7H-[1,4]oxazino[2,3,4-ij]quinoline-6-carboxylic acid]					0.06 µg/mL (≈ 0.141 µM)	> 32 µg/mL	8 µg/mL (≈ 18.8 µM)	0.06 µg/mL (≈ 0.141 µM)	0.25 µg/mL (≈ 0.588 µM)	AUC of growth curve ([4]; 0.25 MIC + R (reserpine)): 1.819 and 2.376 and 1.866; AUC of growth curve ([4]; 0.25 MIC): 2.249 and 2.537 and 2.169; AUC of growth curve ([4]; 0.5 MIC + R (reserpine)): 1.376 and 1.633 and 1.162; AUC of growth curve ([4]; 0.5 MIC): 1.682 and 1.538 and 1.705; fold difference in MIC, SA-1199B vs SA-1199 [2]: 4 fold
C[C@H]1COc2c(N3CCC(Nc4ncccn4)C3)c(F)cc3c(=O)c(C(=O)O)cn1c23 (stereo partly drawn) [Compound 43, (3S)-9-Fluoro-3-methyl-7-oxo-10-(3-(pyrimidin-2-ylamino)pyrrolidin-1-yl)-2,3-dihydro-7H-[1,4]oxazino[2,3,4-ij]quinoline-6-carboxylic acid]					0.125 µg/mL (≈ 0.294 µM)	2 µg/mL (≈ 4.7 µM)	2 µg/mL (≈ 4.7 µM)	0.016 µg/mL (≈ 0.0376 µM)	0.03 µg/mL (≈ 0.0705 µM)	AUC of growth curve ([4]; 0.25 MIC + R (reserpine)): 2.601 and 2.681 and 2.535; AUC of growth curve ([4]; 0.25 MIC): 3.079 and 3.208 and 2.944; AUC of growth curve ([4]; 0.5 MIC + R (reserpine)): 0.9550 and 0.7355 and 0.8940; AUC of growth curve ([4]; 0.5 MIC): 1.061 and 0.9440 and 1.050; efflux liability in reserpine assay ([4]; 0.5x MIC with vs without reserpine): did not demonstrate efflux liability; fold difference in MIC, SA-1199B vs SA-1199 [2]: 2 fold; fold potentiation compared to levofloxacin ([2]; fluoroquinolone-resistant NCTC 13616 and NCTC 13277): 8 fold
C[C@H]1COc2c(N3CC[C@@H](Nc4cnccn4)C3)c(F)cc3c(=O)c(C(=O)O)cn1c23 [Compound 48, (S)-9-Fluoro-3-methyl-7-oxo-10-((R)-3-(pyrazin-2-ylamino)pyrrolidin-1-yl)-2,3-dihydro-7H-[1,4]oxazino[2,3,4-ij]quinoline-6-carboxylic acid]					≤ 0.125 µg/mL	1 µg/mL (≈ 2.35 µM)	1 µg/mL (≈ 2.35 µM)	0.03 µg/mL (≈ 0.0705 µM)	0.125 µg/mL (≈ 0.294 µM)	
Cc1cc(N[C@@H]2CCN(c3c(F)cc4c(=O)c(C(=O)O)cn5c4c3OC[C@@H]5C)C2)ncn1 [Compound 49, (S)-9-Fluoro-3-methyl-10-((R)-3-((6-methylpyrimidin-4-yl)amino)pyrrolidin-1-yl)-7-oxo-2,3-dihydro-7H-[1,4]oxazino[2,3,4-ij]quinoline-6-carboxylic acid]					0.016 µg/mL (≈ 0.0364 µM)	0.5 µg/mL (≈ 1.14 µM)	0.25 µg/mL (≈ 0.569 µM)	0.016 µg/mL (≈ 0.0364 µM)	0.016 µg/mL (≈ 0.0364 µM)	
CNC(C)C1CCC(N)C(OC2C(N)CC(N)C(OC3OCC(C)(O)C(NC)C3O)C2O)O1 (centres unmarked) [Gentamicin]	2.13 to 4.25 µg/mL	0.03 to 1.75 µg/mL	>1,024 μg/mL							MIC [1, 5]: 4 µg/mL; MIC [1, 6]: > 1020 µg/mL
c1ccc2c(CN3CCNCC3)cccc2c1 [NMP, 1-(naphthalen-1-ylmethyl)piperazine, reference compound]										fold improvement over ciprofloxacin alone ([2]; fluoroquinolone-resistant S. aureus strains): 2 fold
NC[C@H]1O[C@H](O[C@H]2[C@H](O)[C@@H](O[C@H]3O[C@H](CO)[C@@H](O)[C@H](N)[C@H]3O)[C@H](N)C[C@@H]2N)[C@H](N)C[C@@H]1O [Tobramycin]	1.88 to 3.76 µg/mL	0.014 to 0.55 µg/mL	56 to 248 µg/mL	0.375 to 136 µg/mL						MIC [1, 5]: 4 µg/mL; MIC [1, 6]: 256 µg/mL
Colistin	0.015 to 0.123 µg/mL	0.0017 to 0.015 µg/mL	0.015 µg/mL	0.003 to 0.007 µg/mL						MIC alone ([1]; A. baumannii ATCC 17978): 0.25 µg/mL; MIC alone ([1]; A. baumannii AYE): 0.25 to 0.5 µg/mL
